In brackets after ≈: the same amount, converted by molar mass. Structures can show the parent of a compound that is named as a salt.
Assays:
THP-1 cells [1] = system: THP-1 cells
Procedure: (§1) THP-1 cells were treated with phorbol 12-myristate 13-acetate (PMA; Sigma-Aldrich, USA) at a final concentration of 50 nM for 40 hours. Infection with M. abscessus containing pTEC15 green fluorescence or luciferase was performed at 37° C. in the presence of 5% CO2 at a multiplicity of […] (MOI) of 2:1 for 3 hours. After extensive washing with PBS, the cells were incubated in a culture medium containing […] of gentamicin for 30 minutes and washed again with PBS. […] Macrophages were stained with SYTO 60 (Invitrogen, USA) dye at a final concentration of 5 μM at 37° C. in a 5% CO2 atmosphere for 30 minutes. On the day 4, luminescence was measured with a Synergy H1 microplate reader (Bio-Tek, USA). The fluorescence microscopic images of living cells were captured with a Lionheart™ FX automated microscope (BIO-Tek, USA). The Gen5™ 3.05 software object feature was available for identification of the cells in the imaging field.
(§2) The use of a double read assay results in dose-response curves for both inhibition for M. abscessus and cytotoxicity to THP-1 cells as determined in a same experiment. […] The cytotoxicity was determined using a SYTO 60 probe.

[2] = system: human colonic epithelial cells (HCT-8); test: WST-8 cell viability and LDH cytotoxicity assay; format: cell-based; details: HCT-8, 24 hours, FIG. 7
Procedure: (§3) THP-1 (ATCC TIB-202) and HCT-8 (ATCC CCL-244) cells were measured in regards to cell viability and cytotoxicity of CC using a WST-8 cell viability assay kit (MediFab, S. Korea) and a CytoTox 96® non-radioactive cytotoxicity assay kit (Promega, Madison, WI, USA), respectively. Differentiated THP-1 cells (1.0×10^5 cells/well) and HCT-8 cells (2.0×10^4 cells/well) were placed in 96-well plates and incubated at 37° C. for 24 hours. Here, CC was added to the cells at different concentrations. For cell viability assay, 10 μL of the reagent (10% medium volume) was added to each well, followed by incubation for 4 hours. The resulting color was measured at 450 nm. For LDH cytotoxicity assay, 50 μL of a reagent for LDH detection was added to each well, and incubation was performed in the dark for 30 minutes. The resulting color was measured at 490 nm. In this regard, the cells treated with 1% Triton™ X-100 were used as a positive control, and those treated with DMSO were all tested negative in both experiments.

THP-1 cells [3] = test: WST-8 cell viability and LDH cytotoxicity assay; format: cell-based, human; details: THP-1, 24 hours, FIG. 7
Procedure: as §3

biofilm-forming microbes = details: Munoz-Egea et al.; cited from earlier work
[4] = system: M. abscessus (lux) in THP-1 cells; format: cell-based, Mycobacterium abscessus; details: THP-1 infection, data not shown
Procedure: as §1, §2

[5] = system: M. abscessus (ATCC 19997) under anaerobic conditions; test: Resazurin dose-response under anaerobic non-replicating culture; format: cell-based, Mycobacterium abscessus
Procedure: In order to determine the antibiotic ability against M. abscessus (ATCC 19997) under anaerobic conditions, a bacterial culture (5×10^6 bacteria/mL) was inoculated into 5 mL of 7H9 broth (BD, 271310) supplemented with 10% OADC. The bacterial culture was placed in an anaerobic jar (BD BBLIM GasPAK™ Jar; Franklin Lakes, NJ, USA). Here, a BD BBLIM GasPAK™ anaerobic indicator (methylene blue for monitoring oxygen depletion) was used. The bacteria were cultured in cation-adjusted Mueller-Hinton broth (MH; Sigma-Aldrich, 90922) for drug susceptibility testing.
(§4) Experiments were performed in triplicates.
A comparison was made between the growth rates under aerobic, anaerobic and restored aerobic conditions in a same culture medium.

[6] = system: M. abscessus (ATCC 19997); test: Resazurin (REMA) broth microdilution dose-response, aerobic culture; format: cell-based, Mycobacterium abscessus
Procedure: Three strains of M. abscessus (ATCC 19997), M. avium (ATCC 25291) and M. intracellulare (ATCC 13950) were cultured at 37° C. in Middlebrook 7H9 broth (BD, 27130) supplemented with 10% OADC (BD, 212240), 0.5% glycerol and 0.05% Tween-80.
The minimum inhibitory concentration (MIC) was determined according to the guideline by the CLSI (Clinical & Laboratory Standards Institute). The CLSI broth microdilution method recommended by MH was used with an inoculum having an OD of 0.001/ml in the exponential phase of growth.
Then, incubation was carried out at 37° C. for 3 hours, followed by adding 40 mL of 0.025% resazurin. After incubation overnight, the fluorescence of resorufin (metabolite resazurin) was measured with a Synergy H1 Hybrid Multi-Mode Reader (Bio-Tek, VT, USA). IC50 values were calculated from raw fluorescence data using Prism 5.0 software (GraphPad Inc., La Jolla, CA, USA). Experiments were performed in triplicates.

[7] = system: M. abscessus in biofilm culture; test: Biofilm assay (Calgary Biofilm Device, MBEC Assay); format: cell-based, Mycobacterium abscessus
Procedure: The first biofilm assay system was the Calgary Biofilm Device used by Bardouniotis et al. to evaluate the bactericidal activity or minimum biofilm eradication concentration (MBEC) of a biocidal active substance against Mycobacterium phlei. In the present invention, MBEC Assay® (Innovotech, Edmonton, Canada) for MBEC measurement was used. Biofilm formation was performed as follows. […] Then, the 96-well microliter plate was covered with a 96-peg lid and incubated for 4 days. After washing, the bacteria remaining on the biofilms were removed from the wells by ultrasonication in the medium. Finally, after incubation, the adherent bacteria remaining on the biofilms with or without antibiotics were quantified with resazurin.

[8] = system: M. abscessus (ATCC 19997); details: known value used for selecting resistant mutants; cited from earlier work
[9] = system: clarithromycin-resistant M. abscessus mutants (M. abscessus CLR-R); test: REMA dose-response against clarithromycin-resistant mutants; format: cell-based, Mycobacterium abscessus; details: mutant produced in presence of 100 mg/L CLR, FIG. 3
Procedure: as §4
It was also tested to determine whether CC inhibits the growth of the drug-resistant strains produced in the present invention in the presence of high concentration (100 mg/L) CLR used for therapy against M. abscessus. […] Accordingly, CC is considered as an active drug for the treatment of CLR-resistant M. abscessus.

| Structure (SMILES) | cytotoxicity to THP-1 cells (THP-1 cells [1]) | effect on cell viability [2] | effect on cell viability (THP-1 cells [3]) | MBEC relative to MIC (biofilm-forming microbes) | effect on intracellular bacterial replication [4] | IC50 ([5]; Mycobacteroides abscessus, ATCC19997, anaerobic culture conditions, FIG. 4) [µg/mL] | shift of the IC50 value, anaerobic versus aerobic ([5]; anaerobic vs aerobic culture) [fold] | general MIC [6] [µg] | IC50 ([6]; Mycobacteroides abscessus, ATCC19997, aerobic culture conditions, FIG. 4) [µg/mL] | MBEC relative to general MIC ([7]; MBEC vs MIC) | IC50 ([7]; Mycobacteroides abscessus, biofilm culture, FIG. 4) [µg/mL] | MBEC for M. abscessus ([7]; biofilm) | known MIC value [8] [mg/L] | resistance of produced mutant to CLR [9] |
| --- | --- | --- | --- | --- | --- | --- | --- | --- | --- | --- | --- | --- | --- | --- |
| CCN(CC)CCOc1ccc(C(=C(Cl)c2ccccc2)c2ccccc2)cc1 [CC, clomiphene citrate] | without cytotoxicity | no harm on the viability | no harm on the viability |  |  |  |  |  |  |  |  |  |  |  |
| CC[C@H]1OC(=O)[C@H](C)[C@@H](O[C@H]2C[C@@](C)(OC)[C@@H](O)[C@H](C)O2)[C@H](C)[C@@H](O[C@@H]2O[C@H](C)C[C@H](N(C)C)[C@H]2O)[C@](C)(OC)C[C@@H](C)C(=O)[C@H](C)[C@@H](O)[C@]1(C)O [CLR, clarithromycin] |  |  |  | 100,000 fold | prevented bacterial replication | 0.0778 (≈ 0.104 µM) | 2 | 0.46 | 0.046 (≈ 0.0615 µM) | 2,000 fold | > 100 | above 100 μg | 0.1 | high drug resistance |

Source: US20240197655A1 (REPUBLIC OF KOREA(MASAN NATIONAL TUBERCULOSIS HOSPITAL), priority 2021, published 2024)
